What was measured:
[1] = target: Genome polyprotein (dengue virus type 2) (UniProt P29990); assay: Inhibition of Dengue virus serotype 2 NS2B-NS3 protease expressed in Escherichia coli BL21 lambda (DE3) cells at 50 uM using Abz-Nle-Lys-Arg-Arg-Ser-3-(NO2)Tyr as substrate preincubated for 15 mins followed by substrate addition and measured for 15 mins by FRET assay relative to control
[2] = target: T1, Genome polyprotein (dengue virus type 2, UniProt P29990); assay: Inhibition of Dengue virus serotype 2 NS2B-NS3 protease expressed in Escherichia coli BL21 lambda (DE3) cells using Abz-Nle-Lys-Arg-Arg-Ser-3-(NO2)Tyr as substrate preincubated for 15 mins followed by substrate addition and measured for 15 mins by FRET assay
[3] = target: Genome polyprotein (West Nile virus) (UniProt P06935); assay: Inhibition of West Nile virus NS2B-NS3 protease expressed in Escherichia coli BL21 lambda (DE3) cells at 50 uM using Abz-Gly-Leu-Lys-Arg-Gly-Gly-3-(NO2)Tyr as substrate preincubated for 15 mins followed by substrate addition measured for 15 mins by fluorimetric analysis relative to control
Sequence of Genome polyprotein (West Nile virus) (P06935 whole entry): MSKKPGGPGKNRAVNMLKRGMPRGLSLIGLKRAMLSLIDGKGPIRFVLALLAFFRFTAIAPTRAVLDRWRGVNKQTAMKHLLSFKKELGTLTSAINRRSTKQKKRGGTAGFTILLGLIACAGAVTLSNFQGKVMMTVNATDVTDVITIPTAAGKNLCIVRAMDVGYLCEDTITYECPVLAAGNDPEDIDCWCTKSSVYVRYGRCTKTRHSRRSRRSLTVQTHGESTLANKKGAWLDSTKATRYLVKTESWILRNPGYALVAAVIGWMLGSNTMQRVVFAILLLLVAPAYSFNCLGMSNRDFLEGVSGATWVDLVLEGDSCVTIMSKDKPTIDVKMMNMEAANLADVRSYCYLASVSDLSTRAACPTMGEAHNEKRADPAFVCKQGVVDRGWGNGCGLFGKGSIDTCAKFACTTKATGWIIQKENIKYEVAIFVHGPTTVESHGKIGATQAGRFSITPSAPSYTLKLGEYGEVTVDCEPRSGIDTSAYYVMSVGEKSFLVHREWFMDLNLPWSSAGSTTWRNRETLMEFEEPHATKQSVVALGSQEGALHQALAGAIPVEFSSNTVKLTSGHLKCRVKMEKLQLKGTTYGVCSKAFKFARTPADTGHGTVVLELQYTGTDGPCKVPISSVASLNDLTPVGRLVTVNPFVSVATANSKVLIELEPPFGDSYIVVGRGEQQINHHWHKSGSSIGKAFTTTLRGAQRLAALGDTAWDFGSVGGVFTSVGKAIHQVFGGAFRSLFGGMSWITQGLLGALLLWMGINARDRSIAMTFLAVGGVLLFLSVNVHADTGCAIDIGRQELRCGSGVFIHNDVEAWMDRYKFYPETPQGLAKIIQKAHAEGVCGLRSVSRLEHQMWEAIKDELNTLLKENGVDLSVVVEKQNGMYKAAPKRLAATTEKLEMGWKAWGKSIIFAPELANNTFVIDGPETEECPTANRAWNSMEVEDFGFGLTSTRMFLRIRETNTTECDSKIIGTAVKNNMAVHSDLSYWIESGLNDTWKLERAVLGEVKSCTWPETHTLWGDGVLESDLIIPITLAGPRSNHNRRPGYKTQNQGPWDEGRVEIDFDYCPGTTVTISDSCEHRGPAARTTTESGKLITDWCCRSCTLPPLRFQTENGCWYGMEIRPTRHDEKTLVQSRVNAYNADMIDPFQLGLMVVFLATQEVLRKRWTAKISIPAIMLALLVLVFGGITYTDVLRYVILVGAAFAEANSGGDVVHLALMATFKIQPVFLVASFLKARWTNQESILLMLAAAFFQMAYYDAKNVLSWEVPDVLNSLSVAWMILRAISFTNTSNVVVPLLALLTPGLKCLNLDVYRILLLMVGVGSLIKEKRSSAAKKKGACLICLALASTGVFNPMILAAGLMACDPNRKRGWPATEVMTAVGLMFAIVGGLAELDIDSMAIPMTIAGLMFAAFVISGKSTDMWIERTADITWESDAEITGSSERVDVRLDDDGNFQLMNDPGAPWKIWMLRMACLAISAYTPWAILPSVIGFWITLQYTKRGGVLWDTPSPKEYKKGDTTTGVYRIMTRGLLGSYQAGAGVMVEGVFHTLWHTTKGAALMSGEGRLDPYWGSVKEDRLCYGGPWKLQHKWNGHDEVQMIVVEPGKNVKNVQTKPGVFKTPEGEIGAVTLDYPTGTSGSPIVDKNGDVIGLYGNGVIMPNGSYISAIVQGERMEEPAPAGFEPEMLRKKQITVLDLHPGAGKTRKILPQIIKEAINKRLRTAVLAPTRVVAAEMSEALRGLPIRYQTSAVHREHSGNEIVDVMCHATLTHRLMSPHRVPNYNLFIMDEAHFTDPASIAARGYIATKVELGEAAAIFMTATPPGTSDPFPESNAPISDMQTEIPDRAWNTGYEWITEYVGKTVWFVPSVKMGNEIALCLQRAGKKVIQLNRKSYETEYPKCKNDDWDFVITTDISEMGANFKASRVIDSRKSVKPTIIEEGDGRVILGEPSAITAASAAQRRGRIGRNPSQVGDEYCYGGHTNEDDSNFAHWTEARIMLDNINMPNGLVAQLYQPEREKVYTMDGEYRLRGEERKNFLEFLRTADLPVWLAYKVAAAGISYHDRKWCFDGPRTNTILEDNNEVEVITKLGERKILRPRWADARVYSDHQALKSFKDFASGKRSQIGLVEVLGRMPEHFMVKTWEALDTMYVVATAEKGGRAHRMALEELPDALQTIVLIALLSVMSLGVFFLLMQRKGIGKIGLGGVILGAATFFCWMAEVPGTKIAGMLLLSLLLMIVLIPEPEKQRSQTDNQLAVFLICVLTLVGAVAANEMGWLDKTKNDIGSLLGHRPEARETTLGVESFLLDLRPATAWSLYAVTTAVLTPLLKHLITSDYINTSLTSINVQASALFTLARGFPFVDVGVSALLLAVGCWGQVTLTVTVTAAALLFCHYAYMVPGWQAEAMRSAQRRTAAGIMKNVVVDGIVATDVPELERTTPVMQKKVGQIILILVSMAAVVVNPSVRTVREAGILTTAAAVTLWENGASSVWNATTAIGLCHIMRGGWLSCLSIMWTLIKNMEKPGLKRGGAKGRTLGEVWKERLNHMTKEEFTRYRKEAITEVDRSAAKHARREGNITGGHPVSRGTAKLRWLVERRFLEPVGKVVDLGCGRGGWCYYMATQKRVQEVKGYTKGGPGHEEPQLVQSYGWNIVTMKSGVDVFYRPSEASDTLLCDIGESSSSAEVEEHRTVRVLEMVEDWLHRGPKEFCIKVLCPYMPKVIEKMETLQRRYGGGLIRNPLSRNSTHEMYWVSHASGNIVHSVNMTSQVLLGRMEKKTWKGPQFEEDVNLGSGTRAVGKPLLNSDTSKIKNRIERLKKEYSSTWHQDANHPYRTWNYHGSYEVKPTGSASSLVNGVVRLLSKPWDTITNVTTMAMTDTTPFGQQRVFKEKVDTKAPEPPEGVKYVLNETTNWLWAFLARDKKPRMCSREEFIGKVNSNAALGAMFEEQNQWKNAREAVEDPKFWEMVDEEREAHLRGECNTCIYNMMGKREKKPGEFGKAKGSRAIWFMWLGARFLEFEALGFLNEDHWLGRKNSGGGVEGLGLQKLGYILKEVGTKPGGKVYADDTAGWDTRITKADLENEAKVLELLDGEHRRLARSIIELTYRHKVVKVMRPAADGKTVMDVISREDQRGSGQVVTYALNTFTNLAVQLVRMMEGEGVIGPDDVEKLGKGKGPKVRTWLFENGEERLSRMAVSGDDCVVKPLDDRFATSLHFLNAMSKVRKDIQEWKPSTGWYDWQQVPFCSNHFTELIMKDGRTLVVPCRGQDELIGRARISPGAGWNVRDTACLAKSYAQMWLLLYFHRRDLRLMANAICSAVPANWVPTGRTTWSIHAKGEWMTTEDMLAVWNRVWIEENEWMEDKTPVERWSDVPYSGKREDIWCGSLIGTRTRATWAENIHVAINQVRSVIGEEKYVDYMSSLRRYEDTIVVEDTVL

[4] = target: Genome polyprotein (West Nile virus, UniProt P06935); assay: Inhibition of West Nile virus NS2B-NS3 protease expressed in Escherichia coli BL21 lambda (DE3) cells using Abz-Gly-Leu-Lys-Arg-Gly-Gly-3-(NO2)Tyr as substrate preincubated for 15 mins followed by substrate addition measured for 15 mins by fluorimetric analysis
Sequence of Genome polyprotein (West Nile virus, UniProt P06935) (P06935 1371-1501 limits assumed): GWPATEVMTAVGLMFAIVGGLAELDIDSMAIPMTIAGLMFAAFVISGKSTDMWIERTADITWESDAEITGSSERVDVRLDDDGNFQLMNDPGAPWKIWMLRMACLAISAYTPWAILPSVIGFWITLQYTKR
Sequence of Genome polyprotein (West Nile virus, UniProt P06935) (P06935 1502-2120 limits assumed): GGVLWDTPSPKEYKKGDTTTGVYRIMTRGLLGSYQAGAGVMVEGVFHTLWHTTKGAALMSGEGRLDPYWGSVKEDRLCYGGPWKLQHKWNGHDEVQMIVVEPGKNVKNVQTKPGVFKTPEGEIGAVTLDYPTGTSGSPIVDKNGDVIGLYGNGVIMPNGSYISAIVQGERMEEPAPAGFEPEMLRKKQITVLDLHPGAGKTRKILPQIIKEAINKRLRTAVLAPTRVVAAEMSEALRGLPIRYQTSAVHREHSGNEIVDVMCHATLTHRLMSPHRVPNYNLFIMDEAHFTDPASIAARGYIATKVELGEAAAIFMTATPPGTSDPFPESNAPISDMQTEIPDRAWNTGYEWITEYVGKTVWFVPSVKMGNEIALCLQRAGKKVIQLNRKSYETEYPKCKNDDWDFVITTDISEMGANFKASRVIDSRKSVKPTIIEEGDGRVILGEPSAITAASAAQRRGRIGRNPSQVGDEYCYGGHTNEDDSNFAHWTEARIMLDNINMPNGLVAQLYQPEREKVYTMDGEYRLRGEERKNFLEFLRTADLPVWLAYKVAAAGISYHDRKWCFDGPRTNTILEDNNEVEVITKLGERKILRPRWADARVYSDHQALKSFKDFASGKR

[5] = target: Genome polyprotein (dengue virus type 2) (UniProt P29990); assay: Inhibition of Dengue virus serotype 2 NS2B-NS3 protease transfected in human HeLa cells at 12.5 uM measured after 24 hrs by Renilla-luciferase reporter gene assay relative to control; format: cell-based
[6] = Cytotoxicity against human HeLa cells assessed as reduction in cell viability measured after 24 hrs by celltiter-blue assay; format: cell-based
[7] = target: Trypsin (Homo sapiens, UniProt P07477+P07478+P35030); assay: Inhibition of trypsin (unknown origin) at 50 uM using Boc-Val-Pro-Arg-AMC as substrate preincubated for 15 mins followed by substrate addition and measured for 15 mins by fluorimetric assay relative to control; format: protein assay; conditions: 0.25 h, 50 µM
[8] = target: Prothrombin (Homo sapiens, UniProt P00734); assay: Inhibition of thrombin (unknown origin) at 25 uM using Boc-Val-Pro-Arg-AMC as substrate preincubated for 15 mins followed by substrate addition and measured for 15 mins by fluorimetric assay; conditions: 0.25 h
[9] = Permeability of the compound assessed as drug level in donor plate at 200 uM measured after 5 hrs at pH 7.4 by PAMPA; format: ADME; conditions: pH 7.4, 5 h
[10] = target: T1, Genome polyprotein; assay: Inhibition of Dengue virus serotype 2 NS2B-NS3 protease transfected in human HeLa cells measured after 24 hrs by Renilla-luciferase reporter gene assay; format: cell-based
[11] = test system: Huh-7; assay: Cytotoxicity against human HuH7 cells assessed as reduction in cell viability at 12 uM measured after 48 hrs by celltiter-blue assay; format: cell-based; conditions: huh-7, 48 h
[12] = test system: dengue virus type 2; assay: Antiviral activity against DENV2 infected in human HuH7 cells assessed as reduction in virus titer at 12.5 uM measured after 48 hrs relative to control; format: functional; conditions: Huh-7, 48 h
[13] = Permeability of the compound assessed as drug level in acceptor plate at 200 uM measured after 5 hrs at pH 7.4 by PAMPA; format: ADME; conditions: pH 7.4, 5 h
[14] = Permeability of the compound at 200 uM measured after 5 hrs at pH 7.4 by PAMPA; format: ADME; conditions: read-out: permeability
[15] = Permeability of the compound assessed as mass retention at 200 uM measured after 5 hrs at pH 7.4 by PAMPA; format: ADME; conditions: pH 7.4, 5 h

Compound	inhibition [1]	IC50 [2]	inhibition [3]	IC50 [4]	inhibition [5]	CC50 at 24 h [6]	inhibition (INH) [7]	inhibition (INH) [8]	Drug uptake ([9]; BLD = below limit of detection)	EC50 [10]	Activity [11]	inhibition at 12.5 µM [12]	Drug uptake [13]	Drug uptake [9]	Papp at 5 h, 200 µM [14]	R% [15]
CCCCCC(=O)N[C@H](C(=O)NCc1ccc(NC(=N)N)cc1)c1ccc(OCc2c(Cl)cccc2Cl)cc1.O=C(O)C(F)(F)F	97.5%	2.9 µM	101%	6.2 µM	41.5%	> 50 µM	Not Active	Not Active	Bld	–	–	–	–	–	–	–
CCCCCCCCCC(=O)N[C@H](C(=O)NCc1ccc(NC(=N)N)cc1)c1ccc(OCc2ccccc2)cc1.O=C(O)C(F)(F)F	99.8%	2.3 µM	102%	5 µM	65.8%	> 50 µM	Not Active	Not Active	Bld	2.3 µM	–	–	–	–	–	–
CCCCCC(=O)N[C@H](C(=O)NCc1ccc(CN(C)C)cc1)c1ccc(OCc2ccccc2)cc1	< 10%	–	< 10%	–	65.7%	> 12.5 µM	Not Active	Not Active	–	6.7 µM	–	–	–	–	–	–
CCCCCC(=O)N[C@H](C(=O)NCc1ccc(NC(=N)N)nc1)c1ccc(OCc2ccccc2)cc1.O=C(O)C(F)(F)F	93.9%	19 µM	96.8%	23 µM	67.7%	> 50 µM	Not Active	Not Active	–	5.9 µM	Non-Toxic	31.5%	–	–	–	–
N=C(N)Nc1ccc(CNC(=O)[C@@H](NC(=O)c2ccc(-c3ccc(Cl)cc3)cc2)c2ccc(OCc3ccccc3)cc2)cc1.O=C(O)C(F)(F)F	98.7%	2 µM	99.9%	3.7 µM	56.6%	> 50 µM	Not Active	Not Active	–	7.1 µM	Non-Toxic	79.9%	–	–	–	–
CCCCCC(=O)N[C@H](C(=O)NCCCCCCNC(=N)N)c1ccc(OCc2ccccc2)cc1	< 10%	–	28.3%	–	61%	> 50 µM	Not Active	Not Active	–	7.7 µM	–	–	–	–	–	–
COc1cccc(COc2ccc(C(=O)N[C@H](C(=O)NCc3ccc(NC(=N)N)cc3)c3ccc(OCc4ccccc4)cc3)cc2)c1.O=C(O)C(F)(F)F	98.4%	4.7 µM	102%	7.4 µM	67.6%	> 12.5 µM	Not Active	Not Active	Bld	2.9 µM	Non-Toxic	21.9%	–	–	–	–
N=C(N)Nc1ccc(CNC(=O)[C@@H](NC(=O)Cc2ccc(-c3ccccc3)cc2)c2ccc(OCc3ccccc3)cc2)cc1.O=C(O)C(F)(F)F	101%	1.3 µM	99.3%	1.8 µM	16.3%	> 50 µM	Not Active	Not Active	Bld	20 µM	–	–	–	–	–	–
NC(=O)N1c2ccccc2C=Cc2ccccc21 [CARBAMAZEPINE]	–	–	–	–	–	–	–	–	–	–	–	–	35.7 µM	171.6 µM	8.1 ×10⁻⁶ cm/s	2.3%
CCCCCC(=O)N[C@H](C(=O)NCc1ccc(N)nc1)c1ccc(OCc2ccccc2)cc1.O=C(O)C(F)(F)F	22.6%	–	37.8%	–	57%	> 50 µM	Not Active	Not Active	–	13 µM	–	–	–	–	–	–
N=C(N)Nc1ccc(CNC(=O)[C@@H](NC(=O)c2ccc(OCc3ccccc3)cc2)c2ccc(OCc3ccccc3)cc2)cc1.O=C(O)C(F)(F)F	106%	4.4 µM	98.7%	7.1 µM	69.8%	> 12.5 µM	Not Active	Not Active	Bld	2.1 µM	Non-Toxic	27.4%	–	–	–	–
CCCCCC(=O)N[C@H](C(=O)Nc1ccc2[nH]ncc2c1)c1ccc(OCc2ccccc2)cc1	22.4%	–	26%	–	65.4%	> 50 µM	Not Active	Not Active	–	6.9 µM	–	–	–	–	–	–
CCCCCC(=O)N[C@@H](C(=O)NCc1ccc(NC(=N)N)cc1)c1ccc(OCc2ccc(Cl)c(Cl)c2)cc1.O=C(O)C(F)(F)F	97.3%	5.7 µM	101%	8.3 µM	51%	> 50 µM	Not Active	Not Active	–	16 µM	–	–	–	–	–	–
O=C1NC(=O)C(c2ccccc2)(c2ccccc2)N1 [PHENYTOIN]	–	–	–	–	–	–	–	–	–	–	–	–	23.4 µM	149.6 µM	6 ×10⁻⁶ cm/s	17.4%
N=C(N)NCc1ccc(CNC(=O)[C@H](NC(=O)c2ccc(Oc3ccccc3)cc2)c2ccc(OCc3ccc(Cl)c(Cl)c3)cc2)cc1.O=C(O)C(F)(F)F	99.8%	2.5 µM	99.6%	5.5 µM	36%	> 50 µM	Not Active	Not Active	Bld	–	–	–	–	–	–	–
CCCCCC(=O)N[C@H](C(=O)NCc1cccc(CN)c1)c1ccc(OCc2ccccc2)cc1	97.2%	30 µM	85.4%	27 µM	71%	> 12.5 µM	Not Active	Not Active	–	4.2 µM	–	–	–	–	–	–
CCCCCC(=O)N[C@H](C(=O)NCc1ccc(CNC(=N)N)cc1)c1ccc(OCc2ccccc2)cc1.O=C(O)C(F)(F)F	104%	14 µM	98.6%	37 µM	66.3%	> 50 µM	Not Active	Not Active	–	6.3 µM	Non-Toxic	79.5%	–	–	–	–
CCCCCC(=O)N[C@H](C(=O)NCc1ccc(NC(=N)N)cc1)c1ccc(OCc2ccc(C(F)(F)F)cc2)cc1.O=C(O)C(F)(F)F	96.3%	7.4 µM	100%	12 µM	66%	> 50 µM	Not Active	Not Active	–	3 µM	Non-Toxic	60.3%	–	–	–	–
Cn1c(=O)c2c(ncn2C)n(C)c1=O [CAFFEINE]	–	–	–	–	–	–	–	–	–	–	–	–	31.9 µM	159.5 µM	7.7 ×10⁻⁶ cm/s	9.6%
N=C(N)Nc1ccc(CNC(=O)[C@@H](NC(=O)c2cccc(Oc3ccccc3)c2)c2ccc(OCc3ccccc3)cc2)cc1.O=C(O)C(F)(F)F	101%	4.9 µM	99.8%	6.1 µM	67.5%	> 25 µM	Not Active	Not Active	–	7.3 µM	–	–	1.1 µM	168.9 µM	0.2 ×10⁻⁶ cm/s	15.2%
CCCCC(=O)N[C@H](C(=O)NCc1ccc(NC(=N)N)cc1)c1ccc(OCc2ccccc2)cc1.O=C(O)C(F)(F)F	22%	–	11.2%	–	69.4%	> 50 µM	Not Active	Not Active	–	2.8 µM	–	–	–	–	–	–

From ChEMBL document CHEMBL4619777, “A New Class of Dengue and West Nile Virus Protease Inhibitors with Submicromolar Activity in Reporter Gene DENV-2 Protease and Viral Replication Assays” (J Med Chem, 2020)
